For series [1] the following is noted: Crystal; visual observation.
Series [2] can be described thus: xn = mol fraction of the nth substance listed. As to conditions: 101 kPa, Liquid, Archimedean displacement method, x1 = 0.5.

This is an account of results in the NIST ThermoML archive (doi:10.1016/j.jct.2013.03.027).

Numbers after ± are expanded uncertainties.

Broadly, the mass density is the mass of a sample divided by its volume.

In the case of `[Ag][I]` [silver iodide], the Normal melting temperature in series [1] turned out to be 559 ± 1 °C.

On to `[Ag][I]` [silver iodide] + [Cl-].[Na+], for which the mass density in series [2] (1065 K) turned out to be 3670 ± 37 kg/m3; in series [2] (1069 K), 3669 ± 37 kg/m3; in series [2] (1072 K), 3664 ± 37 kg/m3; in series [2] (1073 K), 3663 ± 37 kg/m3; in series [2] (1074 K), 3660 ± 37 kg/m3; in series [2] (1078 K), 3657 ± 37 kg/m3. The mass density in series [2] (1084 K) was 3652 ± 37 kg/m3.

As for `[Cl-].[Na+]` [sodium chloride], the Normal melting temperature in series [1] stood at 801 ± 1 °C.
